Source: PubChem BioAssay (NCI)
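Values below derive from 48-hour exposures of cells grown in 96-well plates, with endpoints linearly interpolated between the two concentrations bracketing the appropriate inhibition level. GI50 marks 50% less growth. TGI is the concentration that stops growth completely.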

What was measured:
Assay in all cases: DTP human tumour cell line panel, 48 h
[1] = test system: T-47D breast
[2] = test system: U251 CNS
[3] = test system: NCI/ADR-RES ovarian
[4] = test system: MDA-MB-231 breast
[5] = test system: NCI-H522 lung
[6] = test system: HOP-92 NSCLC
[7] = test system: HL-60(TB) leukemia
[8] = test system: IGROV1 ovarian
[9] = test system: SW-620 colon
[10] = test system: M14 melanoma
[11] = test system: KM12 colon
[12] = test system: K-562 leukemia
[13] = test system: SNB-75 CNS
[14] = test system: COLO 205 colon
[15] = test system: HOP-62 NSCLC
[16] = test system: SK-OV-3 ovarian
[17] = test system: HT29 colon
[18] = test system: UACC-62 melanoma
[19] = test system: RXF 393 renal
[20] = test system: SNB-19 CNS
[21] = test system: TK-10 renal
[22] = test system: OVCAR-4 ovarian
[23] = test system: UO-31 renal
[24] = test system: ACHN renal
[25] = test system: A498 renal
[26] = test system: SF-268 CNS
[27] = test system: SN12C renal
[28] = test system: UACC-257 melanoma
[29] = test system: LOX IMVI melanoma
[30] = test system: HCC-2998 colon
[31] = test system: OVCAR-3 ovarian
[32] = test system: RPMI-8226 leukemia
[33] = test system: MDA-MB-435
[34] = test system: MCF7 breast
[35] = test system: NCI-H226 lung
[36] = test system: 786-0 renal
[37] = test system: HCT-116 colon
[38] = test system: MOLT-4 leukemia
[39] = test system: MALME-3M melanoma
[40] = test system: BT-549 breast
[41] = test system: PC-3 prostate
[42] = test system: CAKI-1 renal
[43] = test system: SF-539 CNS
[44] = test system: CCRF-CEM leukemia
[45] = test system: SR leukemia
[46] = test system: SK-MEL-28 melanoma
[47] = test system: OVCAR-5 ovarian
[48] = test system: HS 578T breast
[49] = test system: SK-MEL-5 melanoma
[50] = test system: NCI-H23 lung
[51] = test system: HCT-15 colon
[52] = test system: DU-145 prostate
[53] = test system: A549 NSCLC
[54] = test system: SK-MEL-2 melanoma
[55] = test system: OVCAR-8 ovarian
[56] = test system: SF-295 CNS
[57] = test system: NCI-H460 lung

CCN(Cc1ccc(F)cc1F)c1ccc(CO)c(Cl)c1
GI50 [1]: 0.105 µM | TGI [1]: 0.701 µM | GI50 [2]: 0.641 µM | TGI [2]: 18.8 µM | GI50 [3]: 12.6 µM | TGI [3]: 32 µM | GI50 [4]: 12.1 µM | TGI [4]: 25.5 µM | GI50 [5]: 14.8 µM | TGI [5]: 37.6 µM | GI50 [6]: 1.18 µM | TGI [6]: 16.5 µM | GI50 [7]: 8.47 µM | TGI [7]: 38.1 µM | GI50 [8]: 0.105 µM | TGI [8]: 0.518 µM | GI50 [9]: 0.917 µM | TGI [9]: > 45.6 µM | GI50 [10]: 20.3 µM | TGI [10]: > 55.6 µM | GI50 [11]: 16.6 µM | TGI [11]: 32.9 µM | GI50 [12]: 1.65 µM | TGI [12]: > 100 µM | GI50 [13]: 12.8 µM | TGI [13]: 45.3 µM | GI50 [14]: 3.31 µM | TGI [14]: 9.24 µM | GI50 [15]: 1.84 µM | TGI [15]: 20.2 µM | GI50 [16]: 7.65 µM | TGI [16]: 22.1 µM | GI50 [17]: 5.65 µM | TGI [17]: 30.4 µM | GI50 [18]: 0.0981 µM | TGI [18]: 0.581 µM | GI50 [19]: 2.26 µM | TGI [19]: 14.5 µM | GI50 [20]: 19.9 µM | TGI [20]: 68.8 µM | GI50 [21]: 0.0434 µM | TGI [21]: 0.245 µM | GI50 [22]: 0.218 µM | TGI [22]: 1.65 µM | GI50 [23]: 4.52 µM | TGI [23]: 43.8 µM | GI50 [24]: 14.1 µM | TGI [24]: 38.3 µM | GI50 [25]: 0.0316 µM | TGI [25]: 0.136 µM | GI50 [26]: 22.7 µM | TGI [26]: > 66.9 µM | GI50 [27]: 11.2 µM | TGI [27]: 23.8 µM | GI50 [28]: 0.128 µM | TGI [28]: 0.372 µM | GI50 [29]: 14.4 µM | TGI [29]: 29 µM | GI50 [30]: 4.26 µM | TGI [30]: 20.4 µM | GI50 [31]: 0.389 µM | TGI [31]: 2.07 µM | GI50 [32]: 2.96 µM | TGI [32]: 32 µM | GI50 [33]: 21 µM | TGI [33]: > 59.6 µM | GI50 [34]: 0.238 µM | TGI [34]: 12.6 µM | GI50 [35]: 0.0945 µM | TGI [35]: 0.219 µM | GI50 [36]: 5.91 µM | TGI [36]: 29 µM | GI50 [37]: 0.0861 µM | TGI [37]: 12.5 µM | GI50 [38]: 19.7 µM | TGI [38]: > 71.5 µM | GI50 [39]: 18.2 µM | TGI [39]: 42.8 µM | GI50 [40]: 14.3 µM | TGI [40]: 34.8 µM | GI50 [41]: 16.3 µM | TGI [41]: 49.2 µM | GI50 [42]: 5.11 µM | TGI [42]: > 54.1 µM | GI50 [43]: 16.1 µM | TGI [43]: 31.7 µM | GI50 [44]: 23.9 µM | TGI [44]: > 88.5 µM | GI50 [45]: 23.2 µM | TGI [45]: 82.1 µM | GI50 [46]: 14.1 µM | TGI [46]: 27.7 µM | GI50 [47]: 0.0685 µM | TGI [47]: 0.317 µM | GI50 [48]: 18.9 µM | TGI [48]: > 72.8 µM | GI50 [49]: 5.75 µM | TGI [49]: 20.5 µM | GI50 [50]: 9.05 µM | TGI [50]: 24.3 µM | GI50 [51]: 11.2 µM | TGI [51]: 30.5 µM | GI50 [52]: 20.1 µM | TGI [52]: > 70.9 µM | GI50 [53]: 1.85 µM | TGI [53]: 21.2 µM | GI50 [54]: 5.36 µM | TGI [54]: 21.3 µM | GI50 [55]: 12.9 µM | TGI [55]: 41.3 µM | GI50 [56]: 0.513 µM | TGI [56]: 14.7 µM | GI50 [57]: 0.259 µM | TGI [57]: 6.68 µM
